Source: patent publication US8445448B2, “FVIII peptides and their use in tolerising haemophiliacs” (Apitope International NV, priority 2007, dated 2013)

Assays:
[1] = tested on: HLA-DR2 restricted cells from factor VIII immunised mice; assay: Recall responses (proliferation) of lymph node cells from FVIII+DR2+ mice primed with rhFVIII/CFA to FVIII peptides; assay type: cell-based; details: FVIII+DR2+ mice immunised with human factor VIII in adjuvant; LNC restimulated in vitro with peptide; FIG. 1
[2] = tested on: fixed Mgar cells / FVIII-/- T cell hybridoma clones; assay: Presentation by fresh or fixed Mgar cells to hybridoma clones (antigen processing-independent presentation, IL-2 ELISA); assay type: cell-based; details: 20 μg/ml, overnight, Mgar cells fresh or fixed with 1% paraformaldehyde, IL-2 by ELISA; FIG. 5
Description: In order to be an antigen processing-independent epitope, a peptide must be capable of binding to an MHC class I or II molecule without further antigen processing (i.e. trimming) and be presented to a T cell. In the present case, the capacity of peptides to be presented by fixed APC was investigated.
Mgar cells were either fresh or fixed with 1% paraformaldehyde. Clones were tested for antigenic specificity by culturing 100 μl of hybridoma cells with 5×10^4 Mgar cells in the presence and absence of 20 μg/ml rhFVIII or peptide epitopes overnight. Supernatants were then collected and assessed for IL-2 production by ELISA.

T-cell hybridomas [3] = assay: FVIII peptide specificity of T cell hybridomas generated from FVIII-/- HLA-DR2+ mice (IL-2 production); assay type: cell-based; details: of 19 hybridomas specific for factor VIII; factor VIII deficient HLA-DR2 mice
Text: Factor VIII deficient mice expressing HLA-DR2 were immunised with factor VIII in adjuvant. Spleen cells from the immunised mice were restimulated in vitro with factor VIII and the resulting lymphoblasts were fused with BW5147, as described above. T-cell hybridomas were screened for their response to the 12 predicted peptides. Yet again, the majority of hybridomas responded to peptides DNIMV (SEQ ID NO:72) and PRCLT (SEQ ID NO:70). Of 19 hybridomas specific for factor VIII, 10 responded to DNIMV (SEQ ID NO:72), 6 to PRCLT (SEQ ID NO:70), 1 to PPIIA (SEQ ID NO:65), 1 to SLYIS (SEQ ID NO:64) and 1 to DTLLI (SEQ ID NO:69).
(§1) HLA-DR2+ murine MHC class II null mice were immunised as above. On day 10 draining lymph nodes were removed and lymphocytes cultured at 2.5×10^6 cells/ml, 1 ml/well in 24 well plates in the presence of 20 μg/ml rhFVIII for 3 days. Following this stimulation, lymphocytes were recovered, washed and fused with TCRα^−β^− BW fusion partner cells at a ratio of 4 BW cells to 1 lymphocyte, using polyethylene glycol as described by Nelson et al (1980) PNAS 77(5):2866. Fused cells were carefully washed and then plated out in flat bottomed 96 well plates for 2 days before the addition of HAT medium to select for T cell hybridomas. Cells were monitored for growth and approximately 10 days after fusions were performed, individual clones were selected and transferred to 24 well plates in HAT medium. Clones were maintained in HAT medium for at least 2 weeks before being weaned into HT medium and then complete medium. Clones were tested for antigenic specificity by culturing 100 μl of hybridoma cells with 5×10^4 Mgar cells in the presence and absence of 20 μg/ml rhFVIII overnight. Supernatants were then collected and assessed for IL-2 production by ELISA, with clones producing IL-2 in response to rhFVIII being considered positive for FVIII-specificity. To investigate the repertoire of predicted FVIII peptides FVIII-specific clones were again tested for IL-2 production, following overnight incubation with 20 μg/ml of each of the 12 peptides.
The same method was followed as for (ii), except the mice were FVIII-deficient and HLA-DR2+.

[4] = tested on: lymph node cells from FVIII-DR2+ mice; assay: Recall responses of lymph node cells from FVIII-DR2+ mice primed with rhFVIII/CFA to the peptide panel; assay type: cell-based; details: FVIII-DR2+ animals immunised with factor VIII in adjuvant; FIG. 3
Text: HLA-DR2 transgenic mice were crossed with factor VIII deficient mice to create a model of haemophilia expressing the human HLA class II MHC molecule.
These FVIII-DR2+ animals were immunised with factor VIII in adjuvant. Draining lymph nodes were isolated and tested for their response to the peptide panel.
The same method was followed as for (i), except the mice were FVIII-deficient, HLA-DR2+ and murine MHC class II null.

HLA-DR2 transgenic mice = assay: Tolerisation of FVIII-specific responses in DR2+ mice by pre-treatment with peptide; assay type: in vivo; details: 3x i.p. 100 μg peptide prior to priming with rhFVIII/CFA, vs PBS, FIG. 6
Description: HLA-DR2 transgenic mice were treated with either of the two soluble peptides, or PBS as a control, prior to immunisation with factor VIII in adjuvant. Draining lymph nodes were isolated and the cells restimulated in vitro with factor VIII protein in order to assess the immune status of the mice.
HLA-DR2+ murine MHC class II null mice were treated 3 times with 100 μg of DNIMV (SEQ ID NO:72), PRCLT (SEQ ID NO:70) or PPIIA (SEQ ID NO:65) dissolved in PBS, or the equivalent volume of PBS alone. Peptides were administered intraperitoneally, with 3-4 days between each dose. Following the final administration, mice were primed with rhFVIII emulsified in complete Freunds adjuvant as for (i). 10 days later, draining lymph nodes were recovered and lymphocytes subsequently cultured in vitro with rhFVIII, or each of the tolerising peptides as well as control antigens, for 72 hours before the addition of tritiated thymidine as for (i).

T-cell hybridomas [5] = assay: FVIII peptide specificity of T cell hybridomas generated from DR2+ mice (IL-2 production); assay type: cell-based; details: for Number of hybridomas responding to peptide: of the 27 hybridomas screened, HLA-DR2 mice, 20 μg/ml peptide, IL-2
Text: HLA-DR2 mice were first immunised with factor VIII in adjuvant. Spleen cells from immune mice were restimulated in vitro with factor VIII and the resulting lymphoblasts were fused with the BW5147 thymoma using polyethylene glycol.
T-cell hybridomas were selected in HAT medium and the hybridomas cloned and tested for their response to factor VIII. The hybridomas were then screened for their response to the 12 predicted peptides.
as §1

Row | Sequence | Response of lymph node cells to peptide (LNC proliferation) [1] | Presentation by live and fixed Mgar cells [2] | Number of hybridomas responding to peptide (T-cell hybridomas [3]) | Response of lymph node cells to peptide [4] | Immune response to factor VIII after peptide pre-treatment (LNC recall response) (HLA-DR2 transgenic mice) | Number of hybridomas responding to peptide (T-cell hybridomas [5]) | Quality of hybridoma response to peptide (T-cell hybridomas [5]; HLA-DR2 mice hybridomas)
1 | DNIMVTFRNQASRPY | respond strongly | presented by both live and fixed Mgar cells | 10 | responded well | substantial suppression of the immune response to factor VIII | 11 | 
2 | DTLLIIFKNQASRPY |  |  | 1 |  |  |  | 
3 | GTLMVFFGNVDSSGI [FVIII first AA 2140] |  |  |  | weak response |  |  | 
4 | PPIIARYIRLHPTHY [FVIII first AA 2161] | responses |  | 1 |  |  | 3 | weaker and less specific
5 | PRCLTRYYSSFVNME | responses | presented by both live and fixed Mgar cells | 6 | responded well | substantial suppression of the immune response to factor VIII | 3 | 
6 | RYLRIHPQSWVHQIA [FVIII first AA 2322] |  |  |  | significant response |  |  | 
7 | SLYISQFIIMYSLDG [FVIII first AA 2114] |  |  | 1 |  |  |  | 
